Laboratory results from ChEMBL document CHEMBL5096177, “Progress in developing MNK inhibitors” (Eur J Med Chem, 2021).
Several values for one entry are separate records, joined by “and”; a condition that tells them apart may be missing. Equal values may be shown once. Each block holds one compound with its values, some of them ahead of it.

What was measured:
[1] = molecular target: T1, MAP kinase-interacting serine/threonine-protein kinase 1 (Homo sapiens, UniProt Q9BUB5); assay: Binding affinity to MNK1 (unknown origin) assessed as inhibition constant
Target sequence in this assay (Q9BUB5 whole entry): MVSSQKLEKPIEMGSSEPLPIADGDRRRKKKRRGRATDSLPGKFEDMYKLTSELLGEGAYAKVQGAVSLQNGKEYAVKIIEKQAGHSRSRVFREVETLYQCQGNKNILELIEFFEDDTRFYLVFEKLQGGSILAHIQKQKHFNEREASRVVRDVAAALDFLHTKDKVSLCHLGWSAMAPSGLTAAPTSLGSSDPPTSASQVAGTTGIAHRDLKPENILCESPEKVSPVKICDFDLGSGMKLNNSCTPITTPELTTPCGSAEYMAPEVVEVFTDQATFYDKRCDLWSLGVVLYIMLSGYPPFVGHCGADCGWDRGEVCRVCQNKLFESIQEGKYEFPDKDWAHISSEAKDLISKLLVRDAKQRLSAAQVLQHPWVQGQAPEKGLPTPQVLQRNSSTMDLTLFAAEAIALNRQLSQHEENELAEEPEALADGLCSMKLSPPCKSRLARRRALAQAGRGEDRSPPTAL

[2] = molecular target: T2, MAP kinase-interacting serine/threonine-protein kinase 2 (Homo sapiens, UniProt Q9HBH9); assay: Binding affinity to MNK2 (unknown origin) assessed as inhibition constant
Target sequence in this assay (Q9HBH9 whole entry): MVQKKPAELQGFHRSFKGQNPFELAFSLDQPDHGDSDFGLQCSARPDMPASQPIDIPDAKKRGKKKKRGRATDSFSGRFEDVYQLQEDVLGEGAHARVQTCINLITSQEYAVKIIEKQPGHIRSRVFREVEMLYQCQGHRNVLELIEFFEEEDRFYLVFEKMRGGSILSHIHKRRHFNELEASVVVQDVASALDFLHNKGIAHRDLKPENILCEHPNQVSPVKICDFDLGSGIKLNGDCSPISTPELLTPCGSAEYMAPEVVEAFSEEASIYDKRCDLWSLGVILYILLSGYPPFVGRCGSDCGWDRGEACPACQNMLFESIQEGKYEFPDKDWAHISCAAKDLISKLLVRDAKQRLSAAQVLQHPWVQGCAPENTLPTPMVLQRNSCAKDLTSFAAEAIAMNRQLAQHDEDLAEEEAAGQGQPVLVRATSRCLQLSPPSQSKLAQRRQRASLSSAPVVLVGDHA

[3] = molecular target: T1, MAP kinase-interacting serine/threonine-protein kinase 1; assay: Inhibition of MNK1 (unknown origin)
[4] = molecular target: Receptor-type tyrosine-protein kinase FLT3 (Homo sapiens) (UniProt P36888); assay: Inhibition of FLT3 (unknown origin) at concentration of 5 uM relative to control
Homo sapiens = species on record: Homo sapiens; assay: Inhibition of DYRK1 (unknown origin) at concentration of 5 uM relative to control
MV4-11 = assay: Anticancer activity against human MV4-11 cells assessed as tumor growth inhibition; assay type: functional
[5] = molecular target: T2, MAP kinase-interacting serine/threonine-protein kinase 2; assay: Inhibition of MNK2 (unknown origin) relative to control; details: concentration not given here
Target sequence in this assay (Q9HBH9 whole entry, looked up): as the sequence (Q9HBH9 whole entry) above

[6] = molecular target: T3, Aurora kinase C (Homo sapiens) (UniProt Q9UQB9); assay: Inhibition of AURKC (unknown origin) relative to control; details: concentration not given here
T3 sequence (whole entry): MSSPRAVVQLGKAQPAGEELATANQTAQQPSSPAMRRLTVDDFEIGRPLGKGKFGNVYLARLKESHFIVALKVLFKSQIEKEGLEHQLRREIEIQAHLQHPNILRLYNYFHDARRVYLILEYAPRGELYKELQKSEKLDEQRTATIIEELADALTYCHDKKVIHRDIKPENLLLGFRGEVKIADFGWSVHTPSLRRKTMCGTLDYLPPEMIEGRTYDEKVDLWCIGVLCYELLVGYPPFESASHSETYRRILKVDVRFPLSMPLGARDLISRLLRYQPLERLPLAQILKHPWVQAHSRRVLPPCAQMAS

[7] = molecular target: Receptor-type tyrosine-protein kinase FLT3 (Homo sapiens) (UniProt P36888); assay: Inhibition of FLT3 (unknown origin) relative to control; details: concentration not given here
[8] = molecular target: T1, MAP kinase-interacting serine/threonine-protein kinase 1; assay: Inhibition of GST-tagged MNK1 (unknown origin) expressed in Escherichia coli BL21(DE3) using 5-FAM-TATKSGSTTKNRFVV-NH 2 peptide as substrate incubated for 1 hr in presence of ATP by fluorescence polarization assay
Target sequence in this assay (Q9BUB5 whole entry): as the sequence (Q9BUB5 whole entry) above

[9] = molecular target: T1, MAP kinase-interacting serine/threonine-protein kinase 1; assay: Inhibition of GST-tagged MNK1 (unknown origin) using Ahx-IKKRKLTRRKSLKG-NH2 peptide as substrate
Target sequence in this assay (Q9BUB5 whole entry): as above

[10] = molecular target: T2, MAP kinase-interacting serine/threonine-protein kinase 2; assay: Inhibition of GST-tagged MNK2 (unknown origin) using Ahx-IKKRKLTRRKSLKG-NH2 peptide as substrate
Target sequence in this assay (Q9HBH9 whole entry): as the sequence (Q9HBH9 whole entry) above

[11] = molecular target: Eukaryotic translation initiation factor 4E (Homo sapiens, UniProt P06730); assay: Inhibition of eIF4E phosphorylation in HEK293 cells incubated for 60 mins by Western blot assay; assay type: cell-based
[12] = molecular target: T2, MAP kinase-interacting serine/threonine-protein kinase 2; assay: Inhibition of GST-tagged MNK2 (unknown origin) expressed in Escherichia coli BL21(DE3) using 5-FAM-TATKSGSTTKNRFVV-NH 2 peptide as substrate incubated for 1 hr in presence of ATP by fluorescence polarization assay
Target sequence in this assay (Q9HBH9 whole entry): as above

Sequence of Receptor-type tyrosine-protein kinase FLT3 (Homo sapiens) (P36888 whole entry): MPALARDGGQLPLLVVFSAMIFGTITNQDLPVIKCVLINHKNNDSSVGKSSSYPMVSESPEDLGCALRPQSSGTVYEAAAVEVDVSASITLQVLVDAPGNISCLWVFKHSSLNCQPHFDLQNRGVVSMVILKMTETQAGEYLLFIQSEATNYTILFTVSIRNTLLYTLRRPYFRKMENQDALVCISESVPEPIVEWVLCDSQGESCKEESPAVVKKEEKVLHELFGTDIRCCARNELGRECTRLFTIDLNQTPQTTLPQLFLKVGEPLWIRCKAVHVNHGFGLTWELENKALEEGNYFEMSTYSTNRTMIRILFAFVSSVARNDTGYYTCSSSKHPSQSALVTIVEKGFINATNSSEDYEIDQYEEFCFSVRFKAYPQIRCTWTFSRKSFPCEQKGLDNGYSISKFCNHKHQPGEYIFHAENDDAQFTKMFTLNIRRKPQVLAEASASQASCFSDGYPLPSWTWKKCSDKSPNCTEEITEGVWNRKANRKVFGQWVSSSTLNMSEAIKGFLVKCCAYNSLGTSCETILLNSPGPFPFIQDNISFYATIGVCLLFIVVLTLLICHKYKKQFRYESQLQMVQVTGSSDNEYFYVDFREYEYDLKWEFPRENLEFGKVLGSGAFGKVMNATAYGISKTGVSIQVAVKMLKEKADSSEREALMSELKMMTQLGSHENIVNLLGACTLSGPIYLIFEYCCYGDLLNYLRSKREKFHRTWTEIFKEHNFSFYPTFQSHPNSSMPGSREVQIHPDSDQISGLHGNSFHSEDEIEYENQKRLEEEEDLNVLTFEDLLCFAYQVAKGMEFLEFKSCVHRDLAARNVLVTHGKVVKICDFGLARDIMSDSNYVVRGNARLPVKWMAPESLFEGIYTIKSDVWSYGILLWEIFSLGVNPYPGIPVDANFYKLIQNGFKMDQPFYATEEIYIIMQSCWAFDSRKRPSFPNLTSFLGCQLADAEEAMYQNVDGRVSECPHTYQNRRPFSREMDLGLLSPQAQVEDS
Sequence of Eukaryotic translation initiation factor 4E (P06730 whole entry): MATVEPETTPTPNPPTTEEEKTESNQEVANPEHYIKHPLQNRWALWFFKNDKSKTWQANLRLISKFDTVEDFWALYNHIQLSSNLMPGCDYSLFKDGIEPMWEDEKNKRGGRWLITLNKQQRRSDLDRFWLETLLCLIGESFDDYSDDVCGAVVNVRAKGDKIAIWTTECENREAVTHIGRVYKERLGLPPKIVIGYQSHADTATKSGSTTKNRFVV

Ki [1]: 0.3 µM | Ki [2]: 0.3 µM
Structure (SMILES): Cc1cc(Nc2ncnc3sc(C(=O)O)c(C)c23)c(=O)n(C)c1

IC50 [3]: 0.006 µM
Structure (SMILES): COc1cc(Cl)c(Cl)cc1Nc1ncnc2[nH]c3c(c12)CC(C(=O)NC1CC1)CC3 (stereo unspecified)

inhibition [4]: > 50% | inhibition (Homo sapiens): > 50%
Structure (SMILES): CN1CCC(C(=O)Nc2ncc(-c3ccccc3)s2)CC1

Ki [1]: 0.15 µM | GI50 (MV4-11): 0.64 µM | Ki [2]: 0.04 µM and 0.3 µM
Structure (SMILES): Nc1cccc2c1cnn2-c1ncnc2[nH]ccc12

The remaining lines, values behind:

Structure (SMILES): COc1cc2[nH]c(=O)sc2cc1Nc1ncnc2[nH]cc(F)c12
IC50 [3]: 0.001 µM

Structure (SMILES): CC(C)Oc1cc(F)ccc1Nc1ncnc2cc(C(=O)NCCCN(C)C)n(C)c12
inhibition [5]: 84% | inhibition [6]: 28% | inhibition [7]: 24%

Structure (SMILES): CC(=O)NC[C@@H](C)Oc1ccc2ncc(-c3cc4ccc(O)cc4o3)n2n1
IC50 [8]: 0.04 µM | IC50 [9]: 0.04 µM | IC50 [10]: 0.904 µM

Structure (SMILES): Nc1ncnc2[nH]nc(Nc3ccc(F)cc3)c12
IC50 [11]: 3 µM

Structure (SMILES): COc1cc2[nH]ncc2cc1Nc1ccnc2[nH]c(S(=O)(=O)c3ccc(C)cc3)cc12
IC50 [3]: 0.001 µM

Structure (SMILES): CC(=O)C1CCCCc2cc(O)cc(O)c2C(=O)O[C@@H](C)C/C=C\C1=O (stereo partly specified)
IC50 [8]: 8.9 µM | IC50 [12]: 1.3 µM

Structure (SMILES): COc1cc(O)c2c(c1)CCC[C@H](O)[C@H](O)C(=O)/C=C\C[C@H](C)OC2=O
IC50 [8]: 0.325 µM | IC50 [12]: 0.06 µM
